Experiment [1] has as its target ATP-dependent molecular chaperone HSP82 (Candida albicans (strain WO-1) (Yeast), UniProt C4YTQ8). In words: loss of DOC-induced GRE-beta-galactosidase reporter signal, dose response, Hsp90 inhibitor project, S. cerevisiae, luminescence (AID 2400).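 Note: beta-galactosidase luminescence from glucocorticoid response element reporter as proxy for Hsp90 function; inhibitor potency where signal loss means Hsp90 inhibition.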 Format: functional, cell-based.
The nature of experiment [2]: cells. Format: functional, cell-based.
For experiment [3], the system named is INS1. In words: beta cell apoptosis inhibitors, cytokine rescue, dose response, luminescence, retest (AID 449756).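 Note: cell death triggered by IL-1 beta plus TNF-alpha plus IFN-gamma mixture; protective hits raise ATP signal compared with cytokine alone wells.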 Conditions: Rattus norvegicus. Format: functional, cell-based.
Experiment [4] is described as follows: NIH-3T3 fibroblast cytotoxicity, dose response, cytotoxicity control, cell-based, fluorescence, Alamar Blue, secondary assay (AID 2327).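 Note: NIH-3T3 mouse fibroblasts cultured with fluconazole at 8 µg/mL.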 Format: functional. In general terms: The colour change of resazurin is a common sign of viable cells or microbes.
Experiment [5] in a line: cells. The class given is functional, cell-based. This is another data set of the same source.
The nature of experiment [6]: C. albicans growth with fluconazole, confirmation, fluorescence, retest (AID 2467). The class given is functional, cell-based.
The target in experiment [7] is T1, Serine/threonine-protein phosphatase (Candida dubliniensis (strain CD36 / CBS 7987 / NCPF 3949 / NRRLY-17841) (Yeast), UniProt B9W6M3).
T1 sequence (B9W6M3 whole entry): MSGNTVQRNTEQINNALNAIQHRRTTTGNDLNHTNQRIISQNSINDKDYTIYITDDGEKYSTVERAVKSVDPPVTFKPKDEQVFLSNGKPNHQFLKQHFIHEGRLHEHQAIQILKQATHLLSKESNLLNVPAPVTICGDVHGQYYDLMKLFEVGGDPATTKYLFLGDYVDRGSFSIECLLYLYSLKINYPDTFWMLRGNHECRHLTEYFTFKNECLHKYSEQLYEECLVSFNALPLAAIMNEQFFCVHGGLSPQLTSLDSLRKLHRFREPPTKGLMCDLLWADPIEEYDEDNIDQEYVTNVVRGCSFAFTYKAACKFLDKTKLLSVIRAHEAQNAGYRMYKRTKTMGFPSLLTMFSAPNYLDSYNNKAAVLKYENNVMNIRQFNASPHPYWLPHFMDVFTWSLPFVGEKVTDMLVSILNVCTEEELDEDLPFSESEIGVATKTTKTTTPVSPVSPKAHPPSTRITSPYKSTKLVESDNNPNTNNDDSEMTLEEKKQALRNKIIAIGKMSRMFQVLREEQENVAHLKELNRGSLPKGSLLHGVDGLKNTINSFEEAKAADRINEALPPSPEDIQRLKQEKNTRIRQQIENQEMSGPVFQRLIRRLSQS
The experiment in a line: calcineurin pathway inhibitors in yeast reporter, dose response, S. cerevisiae, CDRE-lacZ, luminescence, secondary (AID 2388).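 Note: yeast reporter cells carrying a calcineurin-responsive lacZ construct stimulated with calcium chloride; luminescent beta-galactosidase reporter signal in whole cells rather than isolated phosphatase activity; potency for inhibition where a drop in reporter signal means calcineurin blockade.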 The class given is functional, cell-based.

The target of experiment [8] is Photoreceptor-specific nuclear receptor (Homo sapiens, UniProt Q9Y5X4). The class given is functional, cell-based.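 Note: CHO-S cells with Gal4-NCOR and VP16-NR2E3 two-hybrid luciferase reporter.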
Photoreceptor-specific nuclear receptor, sequence (Q9Y5X4 whole entry, the tested form may be a part): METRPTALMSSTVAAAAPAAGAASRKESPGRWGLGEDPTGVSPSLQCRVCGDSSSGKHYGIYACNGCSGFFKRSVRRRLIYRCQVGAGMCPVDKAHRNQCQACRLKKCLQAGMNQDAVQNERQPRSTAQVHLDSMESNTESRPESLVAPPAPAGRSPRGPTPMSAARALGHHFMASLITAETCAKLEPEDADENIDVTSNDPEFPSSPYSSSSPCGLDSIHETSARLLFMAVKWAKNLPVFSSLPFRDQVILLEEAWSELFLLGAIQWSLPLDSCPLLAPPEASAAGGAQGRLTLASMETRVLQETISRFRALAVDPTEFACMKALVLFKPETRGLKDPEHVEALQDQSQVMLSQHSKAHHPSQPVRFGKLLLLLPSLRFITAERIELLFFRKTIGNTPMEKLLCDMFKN
Experiment [9] relates to Vero. In words: Vero cell toxicity, dose response, cytotoxicity control, plate reader, cherry-pick samples (AID 687020). Format: functional, cell-based. Conditions: Chlorocebus sabaeus.
Experiment [10] can be described thus: cytotoxicity toward NIH3T3 fibroblasts, dose response, counter-screen, cell-based, ATP luminescence, mouse fibroblasts (AID 2010).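 Note: cells exposed to compound for about 90 hours before reading.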 The class given is functional. A general note: A counterscreen serves to expose hits that act by an unwanted route or on another target.
Experiment [11] can be described thus: inhibitors of intracellular T. cruzi replication, confirmation, NIH3T3 host cells, beta-gal luminescence (AID 2044).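 Note: intracellular parasites grown in NIH/3T3 mouse fibroblasts as host cells; luminescent beta-galactosidase reporter signal from transgenic T. cruzi replicating inside host cells; inhibitors lower the luminescence signal.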 The class given is functional, cell-based.
Experiment [12] is described as follows: Luminescence Cell-Based Dose Confirmation HTS to Identify Inhibitors of Platelet Dense Granule Release. [Related pubchem assays: 1663 (Primary HTS), 1678 (Summary of Project)]. Format: functional.
Experiment [13] is described as follows: ZM109 Env clade C HIV-1 fusion inhibitors, dose response, HeLa effector, CEM target cells, luciferase, cherry-pick (AID 652058). The class given is functional, cell-based.
Experiment [14] is described as follows: inhibitors of HIV Env-driven cell fusion, dose response, cherry-pick (AID 652057). The class given is functional, cell-based.
Experiment [15] has as its target Cytochrome P450 2D6 (Homo sapiens, UniProt P10635).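 Note: CYP2D6 member of a cytochrome P450 panel assay.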
Experiment [16] deals with Luciferin 4-monooxygenase (Photinus pyralis, UniProt P08659). The experiment in a line: firefly luciferase enzyme inhibitors, dose response, biochemical, luminescence (AID 1891).
Luciferin 4-monooxygenase, sequence (P08659 whole entry, the tested form may be a part): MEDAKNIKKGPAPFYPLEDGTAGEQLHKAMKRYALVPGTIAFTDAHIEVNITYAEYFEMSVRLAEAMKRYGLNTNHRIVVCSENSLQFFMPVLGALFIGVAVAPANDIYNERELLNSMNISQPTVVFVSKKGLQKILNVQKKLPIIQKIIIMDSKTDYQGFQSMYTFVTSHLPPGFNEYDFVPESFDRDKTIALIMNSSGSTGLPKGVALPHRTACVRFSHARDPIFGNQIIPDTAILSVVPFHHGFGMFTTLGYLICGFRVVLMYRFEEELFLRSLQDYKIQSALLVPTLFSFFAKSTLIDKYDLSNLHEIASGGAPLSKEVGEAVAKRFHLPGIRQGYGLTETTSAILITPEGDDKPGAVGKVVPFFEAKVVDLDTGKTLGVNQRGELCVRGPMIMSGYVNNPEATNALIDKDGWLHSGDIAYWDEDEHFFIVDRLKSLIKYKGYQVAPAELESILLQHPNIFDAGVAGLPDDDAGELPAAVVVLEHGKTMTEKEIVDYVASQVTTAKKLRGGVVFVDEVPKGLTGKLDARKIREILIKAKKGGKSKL
A short description of experiment [17]: off-target signal loss in HeLa-CEM21 co-culture – HeLa F-luc CTL cells, cherry-picked, counter-screen for HIV-1 Env fusion inhibitor project, dose response (AID 652040).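 Note: potency for signal decrease marking cytotoxic or nonspecific inhibition.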 The class given is functional, cell-based.
Experiment [18] in a line: inhibitors of clade B AD8 Env fusion, dose response, cell-based, cherry-pick (AID 652062).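 Note: luciferase signal from cell-cell fusion driven by HIV-1 clade B AD8 Env; potency is for inhibitors of fusion seen as a drop in luminescence.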 Format: functional.
Experiment [19] concerns HEK293. The experiment in a line: cells. As to conditions: Homo sapiens.
In experiment [20] the test system is HEK293. In words: cells. As to conditions: Homo sapiens. The source holds these as a separate data set.
The target in experiment [21] is Beta-lactamase (Salmonella choleraesuis (strain SC-B67), UniProt Q5J463).
Beta-lactamase (Salmonella choleraesuis (strain SC-B67), UniProt Q5J463), sequence (Q5J463 whole entry): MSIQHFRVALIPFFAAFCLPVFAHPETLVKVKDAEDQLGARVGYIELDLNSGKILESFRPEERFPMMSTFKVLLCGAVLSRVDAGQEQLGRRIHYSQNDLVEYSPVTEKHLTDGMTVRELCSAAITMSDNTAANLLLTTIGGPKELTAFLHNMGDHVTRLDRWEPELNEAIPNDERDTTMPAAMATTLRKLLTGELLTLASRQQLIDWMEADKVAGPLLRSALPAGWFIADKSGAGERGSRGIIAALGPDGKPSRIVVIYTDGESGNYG
In experiment [22] the target is Troponin, cardiac muscle (Homo sapiens, UniProt P19429+P45379+P63316). In words: Fluorescence-based biochemical high throughput dose response assay for activators of the calcium sensitivity of cardiac Regulated Thin Filaments (RTF). [Related pubchem assays (depositor defined):AID493008, AID493018, AID504382, AID504383]. The class given is protein-complex assay.
In experiment [23] the target is Beta-lactamase (Pseudomonas aeruginosa, UniProt Q79MP6).
Beta-lactamase (Pseudomonas aeruginosa, UniProt Q79MP6), sequence (Q79MP6 whole entry): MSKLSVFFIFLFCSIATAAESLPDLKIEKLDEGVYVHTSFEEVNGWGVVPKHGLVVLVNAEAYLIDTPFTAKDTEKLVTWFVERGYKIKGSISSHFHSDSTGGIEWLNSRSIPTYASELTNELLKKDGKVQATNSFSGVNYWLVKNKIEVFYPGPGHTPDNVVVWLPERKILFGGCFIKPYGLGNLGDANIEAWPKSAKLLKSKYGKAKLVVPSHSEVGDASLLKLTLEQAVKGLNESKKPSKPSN
In experiment [24] the target is T2, DNA repair and recombination protein RAD54-like (Homo sapiens, UniProt Q92698).
T2 sequence (Q92698 whole entry): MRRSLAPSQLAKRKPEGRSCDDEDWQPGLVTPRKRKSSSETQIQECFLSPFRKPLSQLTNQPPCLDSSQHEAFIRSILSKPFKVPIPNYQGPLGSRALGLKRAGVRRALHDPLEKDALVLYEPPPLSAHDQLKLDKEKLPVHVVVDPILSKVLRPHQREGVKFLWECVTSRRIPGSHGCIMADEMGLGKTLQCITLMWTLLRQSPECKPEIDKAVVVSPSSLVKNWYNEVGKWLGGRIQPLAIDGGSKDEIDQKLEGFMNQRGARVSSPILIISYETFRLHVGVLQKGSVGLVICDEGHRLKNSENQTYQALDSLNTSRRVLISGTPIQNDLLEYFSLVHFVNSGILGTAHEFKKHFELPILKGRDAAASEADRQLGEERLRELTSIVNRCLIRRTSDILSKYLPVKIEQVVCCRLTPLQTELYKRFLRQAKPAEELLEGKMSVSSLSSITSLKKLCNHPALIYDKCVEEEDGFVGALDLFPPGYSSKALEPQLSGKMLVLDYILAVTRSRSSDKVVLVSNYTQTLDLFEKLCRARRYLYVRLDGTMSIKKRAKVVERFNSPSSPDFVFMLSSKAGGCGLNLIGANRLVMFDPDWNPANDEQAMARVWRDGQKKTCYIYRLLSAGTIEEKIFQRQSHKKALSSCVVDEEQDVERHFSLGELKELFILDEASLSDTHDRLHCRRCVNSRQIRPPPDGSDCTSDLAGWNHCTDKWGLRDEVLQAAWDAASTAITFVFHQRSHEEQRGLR
The experiment in a line: inhibitors of human RAD54 branch migration, confirmation, biochemical, fluorescence, cherry-picked samples, dose series (AID 651657). Format: functional.

Experiment [25] concerns the target DNA repair protein RAD52 homolog (Homo sapiens, UniProt P43351). Format: functional, biochemical.
Experiment [26] addresses T3, Scavenger receptor class B member 1 (Mus musculus, UniProt Q61009).
T3 sequence (Q61009 whole entry): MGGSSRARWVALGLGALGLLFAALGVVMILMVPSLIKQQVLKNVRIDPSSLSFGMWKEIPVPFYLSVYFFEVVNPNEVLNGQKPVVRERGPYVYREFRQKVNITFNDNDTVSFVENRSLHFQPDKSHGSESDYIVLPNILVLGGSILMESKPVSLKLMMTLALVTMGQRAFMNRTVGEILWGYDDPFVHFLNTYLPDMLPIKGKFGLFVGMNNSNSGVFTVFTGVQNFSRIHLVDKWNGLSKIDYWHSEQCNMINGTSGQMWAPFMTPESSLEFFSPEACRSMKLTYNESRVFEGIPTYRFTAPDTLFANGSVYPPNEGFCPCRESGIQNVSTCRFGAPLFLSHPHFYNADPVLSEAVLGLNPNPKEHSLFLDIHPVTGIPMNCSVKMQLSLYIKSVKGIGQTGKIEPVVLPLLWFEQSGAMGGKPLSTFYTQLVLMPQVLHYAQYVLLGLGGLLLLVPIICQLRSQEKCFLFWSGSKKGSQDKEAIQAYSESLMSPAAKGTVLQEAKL
In words: inhibitors of SR-BI-mediated HDL uptake, dose response, cell-based, ldlA[mSR-BI] CHO, DiI fluorescence, dry powder, set 10 (AID 624029). The class given is functional.

SMILES strings stand for the structures. Active and inactive are the calls of the source. Where only a bound is given, the exact number is not on record here.

ATP-dependent molecular chaperone HSP82, sequence (C4YTQ8 whole entry): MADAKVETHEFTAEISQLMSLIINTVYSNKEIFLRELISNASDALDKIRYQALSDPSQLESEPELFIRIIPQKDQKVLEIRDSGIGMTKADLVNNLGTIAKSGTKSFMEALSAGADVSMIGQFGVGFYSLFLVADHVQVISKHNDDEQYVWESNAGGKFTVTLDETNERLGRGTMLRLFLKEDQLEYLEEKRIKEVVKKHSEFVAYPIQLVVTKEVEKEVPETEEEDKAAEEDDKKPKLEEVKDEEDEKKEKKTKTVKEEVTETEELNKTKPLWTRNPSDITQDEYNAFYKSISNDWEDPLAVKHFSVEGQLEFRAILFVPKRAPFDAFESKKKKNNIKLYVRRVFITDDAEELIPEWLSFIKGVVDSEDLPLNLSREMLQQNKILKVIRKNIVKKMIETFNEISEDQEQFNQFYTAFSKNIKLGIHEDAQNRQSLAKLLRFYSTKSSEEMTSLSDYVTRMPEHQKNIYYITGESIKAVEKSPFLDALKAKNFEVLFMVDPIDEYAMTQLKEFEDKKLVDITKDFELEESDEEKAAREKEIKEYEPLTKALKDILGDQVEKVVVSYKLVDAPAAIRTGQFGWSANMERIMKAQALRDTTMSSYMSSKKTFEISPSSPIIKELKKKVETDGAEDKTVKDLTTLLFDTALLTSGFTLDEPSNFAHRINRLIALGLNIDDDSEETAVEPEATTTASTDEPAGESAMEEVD
DNA repair protein RAD52 homolog, sequence (P43351 whole entry): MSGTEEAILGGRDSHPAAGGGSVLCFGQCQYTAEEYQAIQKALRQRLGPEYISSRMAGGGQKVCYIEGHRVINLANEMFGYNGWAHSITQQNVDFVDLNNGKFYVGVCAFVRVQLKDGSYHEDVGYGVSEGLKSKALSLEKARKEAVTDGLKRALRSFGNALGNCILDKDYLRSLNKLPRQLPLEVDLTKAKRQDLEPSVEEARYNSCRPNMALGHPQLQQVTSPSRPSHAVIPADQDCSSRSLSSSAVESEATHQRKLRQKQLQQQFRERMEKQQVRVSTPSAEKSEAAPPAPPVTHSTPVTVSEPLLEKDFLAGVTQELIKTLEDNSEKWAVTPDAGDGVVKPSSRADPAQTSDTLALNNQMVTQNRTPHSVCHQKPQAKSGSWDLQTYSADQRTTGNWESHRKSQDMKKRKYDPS
Cytochrome P450 2D6, sequence (P10635 whole entry): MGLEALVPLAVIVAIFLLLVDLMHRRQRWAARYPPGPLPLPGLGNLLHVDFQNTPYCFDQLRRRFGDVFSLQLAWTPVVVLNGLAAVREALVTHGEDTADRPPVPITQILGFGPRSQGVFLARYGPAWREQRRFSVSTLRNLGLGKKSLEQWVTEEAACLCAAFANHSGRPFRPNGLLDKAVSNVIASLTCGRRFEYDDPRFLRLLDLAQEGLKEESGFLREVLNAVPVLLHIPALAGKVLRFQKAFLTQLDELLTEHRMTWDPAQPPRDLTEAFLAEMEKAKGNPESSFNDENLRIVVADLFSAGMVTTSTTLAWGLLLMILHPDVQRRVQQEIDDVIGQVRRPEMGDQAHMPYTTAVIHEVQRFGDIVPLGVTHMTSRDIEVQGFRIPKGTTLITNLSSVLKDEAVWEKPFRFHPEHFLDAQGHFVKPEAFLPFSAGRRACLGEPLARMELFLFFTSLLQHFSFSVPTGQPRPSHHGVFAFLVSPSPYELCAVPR

Broadly, the EC50 is the concentration at which the effect is half-maximal. In general, AC50 refers to the concentration at which the activity in the assay is half-maximal. Usually IC50 stands for the midpoint of a concentration-inhibition curve. As to `CC(=O)NC(c1cccs1)c1cc([N+](=O)[O-])c2cccnc2c1O` (stereo unspecified), the EC50 in [1] was > 150 µM (inactive); in experiment [2], > 350 µM (not active); in experiment [4], 46.7 µM (inconclusive); in [5], 51.5 µM (active); in experiment [6], 0.757 µM (active); in experiment [7], > 180 µM (inactive). Besides, the AC50 in experiment [3] was 4.94 µM (active). For the same compound, the IC50 in [8] was 4.71 µM (active).
As to `COc1ccc2ccccc2c1-c1sc(Nc2ccccc2)n[n+]1-c1ccc(F)cc1`, in experiment [9], the AC50 is 31.6 µM (active). In addition, the results for the concentration for a half-maximal effect (EC50) in experiment [10] and in experiment [11] were > 30 µM (not active) and 0.707 µM (active), respectively.
For the compound `Cc1ccc(N2C(=O)CC(c3ccsc3)C3=C2CC(C)(C)CC3=O)cc1` (stereo unspecified), the EC50 in [12] and in experiment [16] was > 112 µM (not active) each time. For the same compound, the AC50 in experiment [13] was 3.55 µM (active); in [14] it was 3.24 µM (active); in [15] it was 39.8 µM (inconclusive); in experiment [17] it was 5.07 µM (active); in experiment [18], 18.9 µM (active).
Turning to `COc1ccc(NC(=O)C2CCCN2S(=O)(=O)c2ccc3c(c2)CCC(=O)N3)cc1Cl` (stereo unspecified), the EC50 in experiment [19] and in experiment [20] was > 59.6 µM (inactive) in each case. The AC50 in experiment [13] is 3.18 µM (active); in experiment [14], 7.43 µM (active); in [17], 14.8 µM (active); in [18], 17.3 µM (active).
For `COc1ccc(/C=C2/SC(c3ccc(C)cc3)=NC2=O)cc1OC`, the IC50 in experiment [21] and in experiment [23] was > 59.6 µM (inactive) in each case. Further, in experiment [22], the EC50 is 0.742 µM (active).
On to `CC(C)C[C@@H](COc1ccccc1)N1CCN(Cc2ccccc2)CCC1=O`, for which the concentration at half-maximal activity (AC50) in experiment [9] is 33.5 µM (active).
For the compound `CN(C)CCCNc1nc2cc(-c3ccc(F)cc3)sc2c(=O)n1C`, the AC50 in experiment [24] was 33.8 µM (active); in [25], 7.84 µM (active).
Take `CC(C)NC(=O)Nc1ccc2c(c1)C(=O)N([C@H](C)CO)C[C@H](C)[C@H](CN(C)S(=O)(=O)c1ccc(Cl)cc1)O2`: in [26], the half-maximal activity concentration (AC50) was 57.4 µM (active).

Values taken from ChEMBL document CHEMBL1201862, “PubChem BioAssay data set” (2004).
